Read-outs that look alike come from different tables or passages of the source.

A short description of data set [1]: Pharmacokinetics in male Sprague Dawley rats. The format is in vivo. The settings on record: rat, plasma. The procedure: The bio-availability and pharmacokinetics of some compounds of the present invention were examined in male Sprague Dawley rats. A total of 6 male rats were used in the study. The study was performed using parallel design (n=3) with serial sampling.
Dose formulations were prepared on the day of doing. Blood samples were collected at 0.083 (only IV), 0.25, 0.5, 1, 2, 4, 8 and 24 h post-dose. At each time point, approximately 0.2 mL of blood was withdrawn from each cannulated rat through jugular vein and transferred to a pre-labeled microfuge tube containing 20 μL of 200 mm K2EDTA permL of blood. Following collection of blood sample, equal volume of heparinized saline was flushed into jugular vein of rat. The blood samples were centrifuged at 5000 g for 5 min at 4±2° C. The plasma was separated within 30 min of scheduled time and stored below −60° C. until bio-analysis. […] The pharmacokinetic parameters for select EXAMPLES were calculated using the non-compartmental analysis tool of validated WinNonlin® software (Version 5.2).

The target in another data set is JAK3 (Homo sapiens (Human), UniProt P52333). The data set can be described thus: JAK3 kinase assay (radiometric filter binding, 10 μM ATP). It is filed as biochemical. As for the experimental part:
(§1) All additions were done on ice, followed by the addition of ATP mix. Wells were uniformly mixed using an Eppendorff plate shaker and incubated at 30° C. for 20 min, and stopped by the addition of 5 μL of 3% phosphoric acid. Volume was increased to 100 μL by adding 0.8% phosphoric acid which was then transferred to PC filter mats (Millipore), pre-equilibrated with 70% ethanol and water. Plates were washed thrice with 100 μL 0.8% phosphoric acid and dried for an hour at 60° C. 100 μL scintillation fluid was added into each well and reading taken in Perkin Elmer TOPCOUNT beta counter.
(§2) The reactions were carried out at 10 μM ATP for ITK, JAK3 and other TEC and Janus family of kinase.

The next data set addresses ITK (Homo sapiens (Human), UniProt Q08881). The data set can be described thus: ITK kinase assay (radiometric filter binding, 10 μM ATP). The format is biochemical. As for the experimental part: as §1, §2
Setting [2] is: IV 5 mg/kg, solution, male Sprague Dawley rats, mean±SD, n=3.
Setting [3] is: PO 20 mg/kg, solution, male Sprague Dawley rats, mean±SD, n=3.
Where [4] appears, read: 10-dose IC50 mode, 10 μM ATP, read-out: JAK3 kinase inhibition.
Where [5] appears, read: 10-dose IC50 mode, 10 μM ATP, read-out: ITK kinase inhibition.
The mark [6] stands for this setting: read-out: ITK kinase inhibition.

Chain of ITK (Q08881 whole entry): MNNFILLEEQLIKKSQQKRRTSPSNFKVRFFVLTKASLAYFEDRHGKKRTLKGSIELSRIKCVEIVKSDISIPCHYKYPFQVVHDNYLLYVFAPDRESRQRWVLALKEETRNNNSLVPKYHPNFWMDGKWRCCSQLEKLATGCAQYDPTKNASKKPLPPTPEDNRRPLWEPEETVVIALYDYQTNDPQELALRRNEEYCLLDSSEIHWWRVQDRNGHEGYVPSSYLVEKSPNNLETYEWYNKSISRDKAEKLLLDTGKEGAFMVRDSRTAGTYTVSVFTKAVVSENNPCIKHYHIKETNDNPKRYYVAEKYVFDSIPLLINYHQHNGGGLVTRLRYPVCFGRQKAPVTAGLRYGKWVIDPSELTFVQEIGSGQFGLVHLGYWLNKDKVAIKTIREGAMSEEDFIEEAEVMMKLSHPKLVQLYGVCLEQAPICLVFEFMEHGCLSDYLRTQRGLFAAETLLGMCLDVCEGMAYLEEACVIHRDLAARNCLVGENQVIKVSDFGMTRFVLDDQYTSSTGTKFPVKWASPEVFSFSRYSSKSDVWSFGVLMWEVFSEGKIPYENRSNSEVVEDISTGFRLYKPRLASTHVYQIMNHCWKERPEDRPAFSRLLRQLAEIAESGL
Chain of JAK3 (P52333 whole entry): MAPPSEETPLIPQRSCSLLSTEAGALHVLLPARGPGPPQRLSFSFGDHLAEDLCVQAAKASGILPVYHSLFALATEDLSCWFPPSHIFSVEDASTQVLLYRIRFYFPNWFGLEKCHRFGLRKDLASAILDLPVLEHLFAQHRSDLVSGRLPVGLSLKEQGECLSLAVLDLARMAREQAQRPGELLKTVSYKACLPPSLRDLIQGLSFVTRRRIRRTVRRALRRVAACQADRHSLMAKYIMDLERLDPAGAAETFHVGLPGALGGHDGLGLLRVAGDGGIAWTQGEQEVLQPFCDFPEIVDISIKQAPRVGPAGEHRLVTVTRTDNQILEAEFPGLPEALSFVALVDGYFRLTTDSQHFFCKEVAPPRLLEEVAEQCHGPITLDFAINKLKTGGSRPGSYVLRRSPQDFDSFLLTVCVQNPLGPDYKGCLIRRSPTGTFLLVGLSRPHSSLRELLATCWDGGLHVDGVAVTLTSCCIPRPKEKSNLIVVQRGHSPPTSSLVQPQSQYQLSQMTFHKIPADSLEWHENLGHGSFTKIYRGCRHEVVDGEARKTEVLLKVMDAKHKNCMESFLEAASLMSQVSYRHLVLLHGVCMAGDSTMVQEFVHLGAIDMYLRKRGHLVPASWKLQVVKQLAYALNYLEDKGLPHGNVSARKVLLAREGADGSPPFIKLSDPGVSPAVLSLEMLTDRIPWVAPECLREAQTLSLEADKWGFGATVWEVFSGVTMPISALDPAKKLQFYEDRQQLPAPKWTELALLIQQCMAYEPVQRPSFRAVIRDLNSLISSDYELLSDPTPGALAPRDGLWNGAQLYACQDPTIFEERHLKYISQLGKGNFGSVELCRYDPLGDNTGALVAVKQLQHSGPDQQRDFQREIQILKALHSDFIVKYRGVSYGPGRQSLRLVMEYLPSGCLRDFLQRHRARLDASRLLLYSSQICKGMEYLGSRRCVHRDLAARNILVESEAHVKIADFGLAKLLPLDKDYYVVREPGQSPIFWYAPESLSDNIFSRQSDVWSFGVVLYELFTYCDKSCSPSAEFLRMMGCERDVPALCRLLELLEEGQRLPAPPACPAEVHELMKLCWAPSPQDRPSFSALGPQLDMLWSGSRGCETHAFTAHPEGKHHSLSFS

As a reminder, the bioavailability is the share of a dose that reaches the circulation, judged against a reference dose that is usually intravenous. What is called AUC(0-inf) is total exposure, with the tail of the curve extrapolated. Broadly, the AUC(0-t) is the area under the concentration-time curve up to a stated or last time point. The low end stands for less exposure, the high end for more exposure. As usually defined, the clearance is the rate of elimination divided by the concentration. High values mean efficient removal, low ones inefficient removal. Usually half-life stands for the time in which the quantity being followed falls by half. Higher therefore signals slow decline. For orientation: Tmax means the time from dosing to the highest level. For `C=CC(=O)Nc1cccc(-c2cnc3[nH]cc(Cl)c3c2)c1` [Example 7, N-(3-(3-chloro-1H-pyrrolo[2,3-b]pyridin-5-yl)phenyl)acrylamide], the bioavailability in data set [1] (male, Sprague Dawley, PO 20 mg/kg vs IV 5 mg/kg, AUCinf and nominal doses used, read-out: F (bioavailability)) is 15%. In addition, the AUC(0-inf) in data set [1] (setting [2]) came out at 2620 ± 647 ng·h/mL; in data set [1] (setting [3]), 1600 ± 183 ng·h/mL. For the same compound, the AUC(0-t) was determined as 2600 ng·h/mL in data set [1] (setting [2]) and 1580 ng·h/mL in data set [1] (setting [3]). The compound also returned a clearance in data set [1] (setting [2]) of 33.4 ± 9.57 mL/min/kg. Besides, in data set [1] (setting [2]), the half-life is 32.4 ± 3 min. For the same compound, the Cmax in data set [1] (IV 5 mg/kg, solution, male Sprague Dawley rats, mean±SD, n=3, read-out: Cmax (back extrapolated concentration at time zero)) is 3850 ng/mL; in data set [1] (PO 20 mg/kg, solution, male Sprague Dawley rats, mean±SD, n=3, read-out: Cmax), 853 ng/mL. The Vd in data set [1] (IV 5 mg/kg, solution, male Sprague Dawley rats, mean±SD, n=3, read-out: Vss) was 1.61 ± 0.28 L/kg. For the same compound, the Tmax in data set [1] (PO 20 mg/kg, solution, male Sprague Dawley rats, median (range), n=3) was 15 min. The IC50 on JAK3 (read-out: biochemical IC50 against JAK3) and at ITK (read-out: biochemical IC50 against ITK) was 100 to 1000 nM throughout.
Consider `CC#CC(=O)Nc1cc(-c2cnc3[nH]ccc3c2)ccc1F` [Example 87, N-(2-fluoro-5-(1H-pyrrolo[2,3-b]pyridin-5-yl)phenyl)but-2-ynamide], for which the results for the IC50 at JAK3 (setting [4]) and on ITK (setting [5]) were under 100 nM and over 100 nM, respectively.
With `CCC#CC(=O)Nc1cccc(-c2cnc3[nH]cc(C)c3c2)n1` [Example 90, N-(6-(3-methyl-1H-pyrrolo[2,3-b]pyridin-5-yl)pyridin-2-yl)pent-2-ynamide], the IC50 at JAK3 (setting [4]) and at ITK (setting [5]) was under 100 nM each time.
As for `CC#CC(=O)Nc1cccc(-c2cnc3[nH]cc(C)c3c2)n1` [Example 91, N-(6-(3-methyl-1H-pyrrolo[1,3-b]pyridin-5-yl)pyridin-2-yl)but-2-ynamide], the IC50 on JAK3 (setting [4]) and on ITK (setting [5]) was under 100 nM throughout.
Regarding `C#CC(=O)Nc1cc(-c2cnc3[nH]cc(C)c3c2)ccc1F` [Example 92, N-(2-fluoro-5-(3-methyl-1H-pyrrolo[2,3-b]pyridin-5-yl)phenyl)propiolamide], the IC50 at JAK3 (setting [4]) and on ITK (setting [5]) was under 100 nM in each case.
For `CC#CC(=O)Nc1cc(-c2cnc3[nH]cc(C)c3c2)ccc1F` [Example 93, N-(2-fluoro-5-(3-methyl-1H-pyrrolo[2,3-b]pyridin-5-yl)phenyl)but-2-ynamide], the IC50 on JAK3 (setting [4]) and on ITK (setting [5]) was over 100 nM in each case.
With `CC#CC(=O)Nc1cccc(-c2cnc3[nH]cc(-c4cccc(S(=O)(=O)N(C)C(C)(C)C)c4)c3c2)c1` [Example 94, N-(3-(3-(3-(N-(tert-butyl)-N-methylsulfamoyl)phenyl)-1H-pyrrolo[2,3-b]pyridin-5-yl)phenyl)but-2-ynamide], the IC50 on JAK3 (setting [4]) and at ITK (setting [6]) was over 100 nM in each case.
Consider `C#CC(=O)Nc1cccc(-c2cnc3[nH]cc(-c4cccc(S(=O)(=O)N(C)C(C)(C)C)c4)c3n2)c1` [Example 95, N-(3-(7-(3-(N-(tert-butyl)-N-methylsulfamoyl)phenyl)-5H-pyrrolo[2,3-b]pyrazin-2-yl)phenyl)propiolamide], for which the IC50 at JAK3 (setting [4]) and at ITK (setting [5]) was over 100 nM in each case.
For `CCC#CC(=O)Nc1cccc(-c2cnc3[nH]cc(-c4cccc(S(=O)(=O)N(C)C(C)(C)C)c4)c3n2)c1` [Example 96, N-(3-(7-(3-(N-(tert-butyl)-N-methylsulfamoyl)phenyl)-5H-pyrrolo[2,3-b]pyrazin-2-yl)phenyl)pent-2-ynamide], the IC50 at JAK3 (setting [4]) and on ITK (setting [5]) was over 100 nM in each case.
`C#CC(=O)Nc1cccc(-c2cnc3[nH]cc(-c4cc(F)cc(F)c4OC)c3c2)c1` [Example 98, N-(3-(3-(3,5-difluoro-2-methoxyphenyl)-1H-pyrrolo[2,3-b]pyridin-5-yl)phenyl)propiolamide]: the IC50 at JAK3 (setting [4]) and at ITK (setting [5]) was over 100 nM throughout.
As for `COc1c(F)cc(F)cc1-c1c[nH]c2ncc(-c3cc(NC(=O)/C=C/CN(C)C)ccc3F)cc12` [Example 133, (E)-N-(3-(3-(3,5-difluoro-2-methoxyphenyl)-1H-pyrrolo[2,3-b]pyridin-5-yl)-4-fluorophenyl)-4-(dimethylamino)but-2-enamide], the IC50 on JAK3 (setting [4]) and on ITK (setting [5]) was over 100 nM each time.
For the compound `COc1cc(F)c(C)cc1-c1c[nH]c2ncc(-c3cccc(NC(=O)/C=C/CN(C)C)c3)cc12` [Example 138, (E)-4-(dimethylamino)-N-(3-(3-(4-fluoro-2-methoxy-5-methylphenyl)-1H-pyrrolo[2,3-b]pyridin-5-yl)phenyl)but-2-enamide], the IC50 at JAK3 (setting [4]) and at ITK (setting [5]) was over 100 nM in each case.
Consider `C=CC(=O)Nc1cccc(-c2cnc3[nH]cc(-c4cc(C)c(F)cc4OC)c3c2)c1` [Example 140, N-(3-(3-(4-fluoro-2-methoxy-5-methylphenyl)-1H-pyrrolo[2,3-b]pyridin-5-yl)phenyl)acrylamide], for which the IC50 is over 100 nM on JAK3 (setting [4]) and over 1000 nM at ITK (setting [5]).
Turning to `Cc1cccc(-c2c[nH]c3ncc(-c4cccc(NC(=O)/C=C/CN(C)C)c4)cc23)c1F` [Example 145, (E)-4-(dimethylamino)-N-(3-(3-(2-fluoro-3-methylphenyl)-1H-pyrrolo[2,3-b]pyridin-5-yl)phenyl)but-2-enamide], the IC50 on JAK3 (setting [4]) and on ITK (setting [5]) was over 100 nM in each case.
In the case of `Cc1c[nH]c2ncc(-c3cccc(NC(=O)/C=C/CN(C)C)c3)cc12` [Example 152, (E)-4-(dimethylamino)-N-(3-(3-methyl-1H-pyrrolo[2,3-b]pyridin-5-yl)phenyl)but-2-enamide], the IC50 on JAK3 (setting [4]) and at ITK (setting [5]) was over 100 nM in each case.
With `CN(C)C/C=C/C(=O)Nc1cccc(-c2cnc3[nH]cc(Cl)c3c2)c1` [Example 153, (E)-N-(3-(3-chloro-1H-pyrrolo[2,3-b]pyridin-5-yl)phenyl)-4-(dimethylamino)but-2-enamide], the IC50 is under 100 nM at JAK3 (setting [4]) and over 100 nM at ITK (setting [5]).
On to `COc1c(F)cc(F)cc1-c1c[nH]c2ncc(-c3cccc(NC(=O)/C(C)=C/C(C)(C)C)c3)cc12` [Example 158, (E)-N-(3-(3-(3,5-difluoro-2-methoxyphenyl)-1H-pyrrolo[2,3-b]pyridin-5-yl)phenyl)-2,4,4-trimethylpent-2-enamide], for which the IC50 on JAK3 (setting [4]) and on ITK (setting [5]) was under 100 nM throughout.
For `C=CC(=O)Nc1cc(F)cc(-c2cnc3[nH]cc(-c4cc(F)cc(F)c4OC)c3c2)c1C` [Example 168, N-(3-(3-(3,5-difluoro-2-methoxyphenyl)-1H-pyrrolo[2,3-b]pyridin-5-yl)-5-fluoro-2-methylphenyl)acrylamide], the IC50 on JAK3 (setting [4]) and on ITK (setting [5]) was under 100 nM throughout.
Regarding `COc1c(F)cc(F)cc1-c1c[nH]c2ncc(-c3cc(F)cc(NC(=O)/C=C/CN(C)C)c3C)cc12` [Example 169, (E)-N-(3-(3-(3,5-difluoro-2-methoxyphenyl)-1H-pyrrolo[2,3-b]pyridin-5-yl)-5-fluoro-2-methylphenyl)-4-(dimethylamino)but-2-enamide], the IC50 at JAK3 (setting [4]) and on ITK (setting [5]) was under 100 nM in each case.
Take `COc1c(F)cc(F)cc1-c1c[nH]c2ncc(-c3cc(F)cc(NC(=O)/C(C)=C/C(C)(C)C)c3C)cc12` [Example 170, (E)-N-(3-(3-(3,5-difluoro-2-methoxyphenyl)-1H-pyrrolo[2,3-b]pyridin-5-yl)-5-fluoro-2-methylphenyl)-2,4,4-trimethylpent-2-enamide]: the IC50 on JAK3 (setting [4]) and at ITK (setting [5]) was under 100 nM throughout.
Take `COc1cc(F)c(C)cc1-c1c[nH]c2ncc(-c3cc(F)cc(NC(=O)/C=C/CN(C)C)c3C)cc12` [Example 172, (E)-4-(dimethylamino)-N-(5-fluoro-3-(3-(4-fluoro-2-methoxy-5-methylphenyl)-1H-pyrrolo[2,3-b]pyridin-5-yl)-2-methylphenyl)but-2-enamide]: the IC50 at JAK3 (setting [4]) and at ITK (setting [5]) was under 100 nM each time.
Take `COc1cc(F)c(C)cc1-c1c[nH]c2ncc(-c3cc(F)cc(NC(=O)/C(C)=C/C(C)(C)C)c3C)cc12` [Example 173, (E)-N-(5-fluoro-3-(3-(4-fluoro-2-methoxy-5-methylphenyl)-1H-pyrrolo[2,3-b]pyridin-5-yl)-2-methylphenyl)-2,4,4-trimethylpent-2-enamide]: the IC50 at JAK3 (setting [4]) and at ITK (setting [5]) was under 100 nM in each case.
Take “(E)-N-(3-(3-methyl-1H- pyrazolo[3,4-b]pyridin-5- yl)phenyl)acrylamide [Example 51]”: the IC50 on JAK3 (read-out: JAK3 kinase inhibition) and on ITK (setting [6]) was over 100 nM in each case.

Source of the values: US9206188B2, “Substituted pyrrolo[2,3-b]pyridines as ITK and JAK inhibitors” (Arrien Pharmaceuticals LLC, priority 2013, dated 2015).
